Assay results: PubChem BioAssay (NCI)
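Results reflect a 48-hour exposure of cells in 96-well plates to compound at five concentrations. Here, GI50 denotes the concentration required for 50% inhibition of growth. Definition used: TGI = concentration required for complete inhibition of growth.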

What was measured:
Experiment in all cases: NCI anticancer screen, dose series, 48 h
MDA-N = test system: MDA-N
SN12C renal = test system: SN12C renal
HL-60(TB) leukemia = test system: HL-60(TB) leukemia
K-562 leukemia = test system: K-562 leukemia
HT29 colon = test system: HT29 colon
SNB-75 CNS = test system: SNB-75 CNS
ACHN renal = test system: ACHN renal
RPMI-8226 leukemia = test system: RPMI-8226 leukemia
OVCAR-4 ovarian = test system: OVCAR-4 ovarian
NCI-H460 lung = test system: NCI-H460 lung

Compound | TGI (MDA-N) [µM] | TGI (SN12C renal) [µM] | TGI (HL-60(TB) leukemia) [µM] | TGI (K-562 leukemia) [µM] | TGI (HT29 colon) [µM] | TGI (SNB-75 CNS) [µM] | TGI (ACHN renal) [µM] | TGI (RPMI-8226 leukemia) [µM] | TGI (OVCAR-4 ovarian) [µM] | TGI (NCI-H460 lung) [µM] | GI50 (MDA-N) [µM] | GI50 (SN12C renal) [µM] | GI50 (NCI-H460 lung) [µM] | GI50 (HL-60(TB) leukemia) [µM] | GI50 (K-562 leukemia) [µM] | GI50 (HT29 colon) [µM] | GI50 (ACHN renal) [µM] | GI50 (RPMI-8226 leukemia) [µM] | GI50 (OVCAR-4 ovarian) [µM]
Cc1ncn(-c2ccccc2O)c1C | > 100 | > 100 | > 100 | > 100 | > 100 | > 100 | > 100 | > 100 | > 100 | – | – | – | – | – | – | – | – | – | –
OC1NC2Nc3ccccc3NC2NC1O (configuration not stated) | – | > 100 | > 100 | > 100 | > 100 | > 100 | > 100 | – | > 100 | > 100 | – | – | – | – | – | – | – | – | –
O=c1onc2n1-c1ccc(Cl)cc1C(=S)N1CSCC21 (configuration not stated) | 23.7 | 88.2 | – | > 100 | 53.1 | 91.9 | > 100 | > 100 | > 100 | 40 | – | – | – | – | – | – | – | – | –
COc1ccc2c(c1)c1c3c(ccc4ncn2c43)N(CCO)CCN=1 | 0.808 | 0.519 | 0.407 | 0.228 | 0.898 | 1.19 | 0.543 | 2.56 | 0.915 | 0.484 | – | – | – | – | – | – | – | – | –
CN(O)C(=O)CCC(NC(=O)CCC(N)C(=O)O)C(=O)NCC(=O)O (configuration not stated) | > 100 | > 100 | > 100 | > 100 | > 100 | > 100 | > 100 | > 100 | > 100 | > 100 | – | – | – | – | – | – | – | – | –
NC1=Nc2ccccc2Sc2nncn21 | – | > 100 | > 100 | > 100 | > 100 | > 100 | > 100 | > 100 | > 100 | > 100 | – | – | – | – | – | – | – | – | –
COC(=O)C1=C(C)NC(=O)N2[C@@H](CCOCc3ccccc3)CC[C@@H]12 | > 50 | – | > 50 | > 50 | > 50 | > 50 | > 50 | > 50 | > 50 | > 50 | – | – | – | – | – | – | – | – | –
S=C(NCc1ccccc1)Nc1sc(=NCc2ccccc2)nc2sc3c(c12)CCN(N1CCc2c(sc4nc(=NCc5ccccc5)sc(NC(=S)NCc5ccccc5)c24)C1)C3 | > 58.2 | > 52.8 | 42.4 | > 100 | 43.3 | > 64.9 | > 96.4 | > 100 | > 91 | > 83.9 | – | – | – | – | – | – | – | – | –
CC(=O)Nc1nc(C)c(S(=O)(=O)NC(=O)NC2NC(=O)NC2=O)s1 (configuration not stated) | > 100 | > 100 | > 100 | > 100 | > 100 | > 100 | > 100 | > 100 | > 100 | > 100 | – | – | – | – | – | – | – | – | –
CCOP(=O)(CC(=O)C1CC1)OCC | > 100 | > 100 | > 100 | > 100 | > 100 | > 100 | > 100 | – | > 100 | > 100 | – | – | – | – | – | – | – | – | –
C(=N\c1nc2cc3sc(/N=C/c4ccccc4)nc3cc2s1)/c1ccccc1 | > 100 | > 100 | – | > 100 | > 100 | > 100 | > 100 | > 100 | > 100 | > 100 | – | – | – | – | – | – | – | – | –
Cc1cn(C2CC(n3cc(Cn4ccc(=O)[nH]c4=O)nn3)C(CO)O2)c(=O)[nH]c1=O (configuration not stated) | > 100 | > 100 | > 100 | – | – | > 100 | > 100 | > 100 | > 100 | – | – | – | – | – | – | – | – | – | –
FC1(F)ON2CCc3ccccc3C2[C@H]1c1ccccc1 (some centres not stated) | > 100 | > 100 | > 100 | > 100 | > 100 | 70.8 | > 100 | > 100 | > 100 | > 100 | > 100 | > 100 | > 100 | > 100 | > 100 | > 100 | > 100 | > 100 | > 100
Cc1c(NC(=S)Nc2ccc([N+](=O)[O-])cc2)c(=O)n(-c2ccccc2)n1C | > 100 | – | > 100 | > 100 | > 100 | > 100 | > 100 | > 100 | – | > 100 | – | – | – | – | – | – | – | – | –
CO/C=C(/C(=O)OC)[C@@H]1C[C@@H]1c1ccc2ccccc2c1 | 65.2 | > 100 | 49.3 | > 100 | 48.6 | – | 78.7 | 41.9 | 77.1 | > 100 | – | – | – | – | – | – | – | – | –
COc1ccc(C2SCC(=O)N2c2ccc(-n3c(-c4ccccc4)nc4ccccc4c3=O)cc2)cc1 (configuration not stated) | – | > 100 | > 100 | > 100 | > 100 | 79.3 | > 100 | > 100 | > 100 | > 100 | – | – | – | – | – | – | – | – | –
Nc1ncnc2c1ncn2[C@H]1C=C[C@@H](NO)C1 | > 100 | > 100 | – | > 100 | – | > 100 | > 100 | > 100 | > 100 | > 100 | – | – | – | – | – | – | – | – | –
COC(=O)C1CCC(=O)N1C(c1ccc(OC)cc1)c1cc(OC)c(OC)c(OC)c1 (configuration not stated) | 1.97 | > 100 | – | > 75.8 | – | > 94.7 | > 100 | – | > 100 | – | – | – | – | – | – | – | – | – | –
C=C1C2CCC3C4(C)CCCC(C)(C(=O)O)C4CCC3(C2)C1OC(=O)/C(C)=C/C (configuration not stated) | 68.2 | 62.6 | 56.7 | – | > 100 | > 100 | > 100 | – | > 100 | > 100 | – | – | – | – | – | – | – | – | –
NCC(=O)Nc1ccccc1 | > 100 | > 100 | – | > 100 | > 100 | > 100 | > 100 | – | > 100 | > 100 | – | – | – | – | – | – | – | – | –
Cc1cc(N(CCC#N)CCC#N)ccc1/C(N=Nc1ccc([N+](=O)[O-])cc1)=N\NC(=O)c1cc(Cl)ccc1O | > 100 | > 100 | – | > 100 | > 100 | > 100 | > 100 | > 100 | > 100 | > 100 | – | – | – | – | – | – | – | – | –
Cc1ccc2nc3ccccc3c(C3C4C(=O)N(c5ccc(F)cc5)C(=O)C4ON3C(C(N)=O)c3ccccc3)c2c1 (configuration not stated) | – | > 100 | > 100 | > 100 | > 100 | > 100 | > 100 | 77.6 | > 100 | > 100 | – | – | – | – | – | – | – | – | –
